PubChem BioAssay (NCI)
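All cell lines were grown in 96-well plates and treated with compound for 48 hours. GI50 is the concentration that inhibits growth by half. TGI: concentration producing complete growth inhibition.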

What was measured:
Experiment in all cases: NCI anticancer screen, dose series, 48 h
786-0 renal = system: 786-0 renal
A498 renal = system: A498 renal
A549 NSCLC = system: A549 NSCLC
ACHN renal = system: ACHN renal
BT-549 breast = system: BT-549 breast
CAKI-1 renal = system: CAKI-1 renal
CCRF-CEM leukemia = system: CCRF-CEM leukemia
COLO 205 colon = system: COLO 205 colon
DU-145 prostate = system: DU-145 prostate
EKVX NSCLC = system: EKVX NSCLC
HCC-2998 colon = system: HCC-2998 colon
HCT-116 colon = system: HCT-116 colon
HCT-15 colon = system: HCT-15 colon
HL-60(TB) leukemia = system: HL-60(TB) leukemia
HOP-62 NSCLC = system: HOP-62 NSCLC
HOP-92 NSCLC = system: HOP-92 NSCLC
HS 578T breast = system: HS 578T breast
HT29 colon = system: HT29 colon
IGROV1 ovarian = system: IGROV1 ovarian
K-562 leukemia = system: K-562 leukemia
KM12 colon = system: KM12 colon
LOX IMVI melanoma = system: LOX IMVI melanoma
M14 melanoma = system: M14 melanoma
MALME-3M melanoma = system: MALME-3M melanoma
MCF7 breast = system: MCF7 breast
MDA-MB-231 breast = system: MDA-MB-231 breast
MDA-MB-435 = system: MDA-MB-435
MOLT-4 leukemia = system: MOLT-4 leukemia
NCI-H226 lung = system: NCI-H226 lung
NCI-H23 lung = system: NCI-H23 lung
NCI-H460 lung = system: NCI-H460 lung
NCI-H522 lung = system: NCI-H522 lung
NCI/ADR-RES ovarian = system: NCI/ADR-RES ovarian
OVCAR-3 ovarian = system: OVCAR-3 ovarian
OVCAR-4 ovarian = system: OVCAR-4 ovarian
OVCAR-5 ovarian = system: OVCAR-5 ovarian
OVCAR-8 ovarian = system: OVCAR-8 ovarian
PC-3 prostate = system: PC-3 prostate
RPMI-8226 leukemia = system: RPMI-8226 leukemia
RXF 393 renal = system: RXF 393 renal
SF-268 CNS = system: SF-268 CNS
SF-295 CNS = system: SF-295 CNS
SF-539 CNS = system: SF-539 CNS
SK-MEL-2 melanoma = system: SK-MEL-2 melanoma
SK-MEL-28 melanoma = system: SK-MEL-28 melanoma
SK-MEL-5 melanoma = system: SK-MEL-5 melanoma
SK-OV-3 ovarian = system: SK-OV-3 ovarian
SN12C renal = system: SN12C renal
SNB-19 CNS = system: SNB-19 CNS
SNB-75 CNS = system: SNB-75 CNS
SR leukemia = system: SR leukemia
SW-620 colon = system: SW-620 colon
T-47D breast = system: T-47D breast
TK-10 renal = system: TK-10 renal
U251 CNS = system: U251 CNS
UACC-257 melanoma = system: UACC-257 melanoma
UACC-62 melanoma = system: UACC-62 melanoma
UO-31 renal = system: UO-31 renal

## Brc1ccc2[nH]cc(-c3nn4cc(-c5nccs5)nc4s3)c2c1
786-0 renal
  GI50: 2 µM
  TGI: 4.11 µM
A498 renal
  GI50: 16 µM
  TGI: 32 µM
A549 NSCLC
  GI50: 2.6 µM
  TGI: 7.52 µM
ACHN renal
  GI50: 2.39 µM
  TGI: 7.4 µM
BT-549 breast
  GI50: 3.22 µM
  TGI: 11.8 µM
CAKI-1 renal
  GI50: 2.46 µM
  TGI: 7.73 µM
CCRF-CEM leukemia
  GI50: 3.06 µM
  TGI: > 40 µM
COLO 205 colon
  GI50: 5.31 µM
  TGI: 21.9 µM
DU-145 prostate
  GI50: 5.39 µM
  TGI: 17.7 µM
EKVX NSCLC
  GI50: 4.45 µM
  TGI: > 56.7 µM
HCC-2998 colon
  GI50: 2.65 µM
  TGI: > 22.3 µM
HCT-116 colon
  GI50: 1.82 µM
  TGI: 3.44 µM
HCT-15 colon
  GI50: 3.25 µM
  TGI: > 34.7 µM
HL-60(TB) leukemia
  GI50: 22.8 µM
  TGI: > 100 µM
HOP-62 NSCLC
  GI50: 2.46 µM
  TGI: 11.2 µM
HOP-92 NSCLC
  GI50: 1.77 µM
  TGI: 4.56 µM
HS 578T breast
  GI50: 4.88 µM
  TGI: > 64 µM
HT29 colon
  GI50: 7.9 µM
  TGI: > 69.1 µM
IGROV1 ovarian
  GI50: 2.58 µM
  TGI: 14.6 µM
K-562 leukemia
  GI50: 2.84 µM
  TGI: 11.9 µM
KM12 colon
  GI50: 7.16 µM
  TGI: > 100 µM
LOX IMVI melanoma
  GI50: 2.41 µM
  TGI: 10.3 µM
M14 melanoma
  GI50: 3.58 µM
  TGI: 16.1 µM
MALME-3M melanoma
  GI50: 3.71 µM
  TGI: 12.1 µM
MCF7 breast
  GI50: 3.23 µM
  TGI: > 35.5 µM
MDA-MB-231 breast
  GI50: 1.82 µM
  TGI: 5.04 µM
MDA-MB-435
  GI50: 4.4 µM
  TGI: 20.1 µM
MOLT-4 leukemia
  GI50: 2.58 µM
  TGI: > 100 µM
NCI-H226 lung
  GI50: 2.28 µM
  TGI: 8.95 µM
NCI-H23 lung
  GI50: 2.49 µM
  TGI: 10.2 µM
NCI-H460 lung
  GI50: 2.51 µM
  TGI: 7.36 µM
NCI-H522 lung
  GI50: 9.76 µM
  TGI: 36.9 µM
NCI/ADR-RES ovarian
  GI50: 2.28 µM
  TGI: 7.1 µM
OVCAR-3 ovarian
  GI50: 2.58 µM
  TGI: 7.62 µM
OVCAR-4 ovarian
  GI50: 5.04 µM
  TGI: 14.9 µM
OVCAR-5 ovarian
  GI50: 5.88 µM
  TGI: 22.1 µM
OVCAR-8 ovarian
  GI50: 2.53 µM
  TGI: 6.77 µM
PC-3 prostate
  GI50: 2.36 µM
  TGI: 10.8 µM
RPMI-8226 leukemia
  GI50: 2.25 µM
  TGI: 9.84 µM
RXF 393 renal
  GI50: 2.32 µM
  TGI: 5.01 µM
SF-268 CNS
  GI50: 7.98 µM
  TGI: 68.9 µM
SF-295 CNS
  GI50: 3 µM
  TGI: 9.89 µM
SF-539 CNS
  GI50: 3.14 µM
  TGI: 12.2 µM
SK-MEL-2 melanoma
  GI50: 28.6 µM
  TGI: > 100 µM
SK-MEL-28 melanoma
  GI50: 9.15 µM
  TGI: > 59.3 µM
SK-MEL-5 melanoma
  GI50: 3.86 µM
  TGI: 18 µM
SK-OV-3 ovarian
  GI50: 10.3 µM
  TGI: 26.3 µM
SN12C renal
  GI50: 8.1 µM
  TGI: > 50.9 µM
SNB-19 CNS
  GI50: 6.62 µM
  TGI: 22.6 µM
SNB-75 CNS
  GI50: 1.79 µM
  TGI: 7.94 µM
SR leukemia
  GI50: 5.21 µM
  TGI: > 50.7 µM
SW-620 colon
  GI50: 6.68 µM
  TGI: > 58.1 µM
T-47D breast
  GI50: 3.19 µM
  TGI: > 75.7 µM
TK-10 renal
  GI50: 9.55 µM
  TGI: 24.2 µM
U251 CNS
  GI50: 8.49 µM
  TGI: 21.3 µM
UACC-257 melanoma
  GI50: 10.5 µM
  TGI: > 62.5 µM
UACC-62 melanoma
  GI50: > 57.7 µM
  TGI: > 100 µM
UO-31 renal
  GI50: 1.73 µM
  TGI: 6.57 µM
